From US12643871B2, “Aryl formamide compound containing chiral sulfur oxide or salt thereof, preparation method, herbicidal composition and use thereof” (Qingdao Kingagroot Chemical Compound Co., Ltd., priority 2019, dated 2026)

Tests used:
Experiment in all cases: Weeding effect in post-emergence stage
Format in all cases: in vivo
Conditions in all cases: 250 g/ha; 2 leaf stage; 15 days after application; fresh weight control rate
Amaranthus retroflexus = test system: Amaranthus retroflexus
How it was run: (§1)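 Greenhouse pot-grown weeds were sprayed at the 2-leaf stage, 2 weeks after sowing, with compound in acetone/Tween 80 plus 1.5 L/ha methyl oleate EC, at 500, 250, 125, 60, 30 or 15 g/ha. Fresh-weight growth control was scored 15 days later on a 0–5 scale, mean of three repeats.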

Setaria viridis = test system: Setaria viridis
How it was run: as §1

Abutilon theophrasti = test system: Abutilon theophrasti
How it was run: as §1

Echinochloa crusgali = test system: Echinochloa crusgali
How it was run: as §1

Digitaria sanguinalis = test system: Digitaria sanguinalis
How it was run: as §1

| SMILES | weeding effect in post-emergence stage, activity level (growth control rate), Amaranthus retroflexus (Amaranthus retroflexus) | weeding effect in post-emergence stage, activity level (growth control rate), Setaria viridis (Setaria viridis) | weeding effect in post-emergence stage, activity level (growth control rate), Abutilon theophrasti (Abutilon theophrasti) | weeding effect in post-emergence stage, activity level (growth control rate), Echinochloa crusgali (Echinochloa crusgali) | weeding effect in post-emergence stage, activity level (growth control rate), Digitaria sanguinalis (Digitaria sanguinalis) |
| --- | --- | --- | --- | --- | --- |
| CSc1c(C(=O)Nc2nnc(C)o2)ccc(C(F)(F)F)c1[S@+]([O-])CC(C)C [Compound 551] | 5 (Level 5: growth control rate is above 85%) | 5 (Level 5: growth control rate is above 85%) | 5 (Level 5: growth control rate is above 85%) | 5 (Level 5: growth control rate is above 85%) | 5 (Level 5: growth control rate is above 85%) |
| Cc1nnc(NC(=O)c2ccc(C(F)(F)F)c([S@+]([O-])C(F)(C(F)(F)F)C(F)(F)F)c2F)o1 [Compound 32] | 5 (Level 5: growth control rate is above 85%) | 5 (Level 5: growth control rate is above 85%) | 5 (Level 5: growth control rate is above 85%) | 5 (Level 5: growth control rate is above 85%) | 5 (Level 5: growth control rate is above 85%) |
| CCOC[S+]([O-])c1c(C(F)(F)F)ccc(C(=O)Nc2nnc(C)o2)c1F (stereo not shown) [Compound 70] | 5 (Level 5: growth control rate is above 85%) | 5 (Level 5: growth control rate is above 85%) | 5 (Level 5: growth control rate is above 85%) | 5 (Level 5: growth control rate is above 85%) | 5 (Level 5: growth control rate is above 85%) |
| CCOC[S@+]([O-])c1c(C(F)(F)F)ccc(C(=O)Nc2nnc(C)o2)c1OC [Compound 343] | 5 (Level 5: growth control rate is above 85%) | 5 (Level 5: growth control rate is above 85%) | 5 (Level 5: growth control rate is above 85%) | 5 (Level 5: growth control rate is above 85%) | 5 (Level 5: growth control rate is above 85%) |
| CCC[S@@+]([O-])c1c(C(F)(F)F)ccc(C(=O)Nc2nnc(C)o2)c1C#N [Compound 546] | 5 (Level 5: growth control rate is above 85%) |  | 5 (Level 5: growth control rate is above 85%) | 5 (Level 5: growth control rate is above 85%) | 5 (Level 5: growth control rate is above 85%) |
| Cc1c(C(=O)Nc2nnnn2C)ccc(S(C)(=O)=O)c1[S@+]([O-])CCCl [Compound 525] | 5 (Level 5: growth control rate is above 85%) |  | 5 (Level 5: growth control rate is above 85%) | 5 (Level 5: growth control rate is above 85%) | 5 (Level 5: growth control rate is above 85%) |
| CCC[S@@+]([O-])c1c(C(F)(F)F)ccc(C(=O)Nc2nnc(C)o2)c1Br [Compound 544] | 5 (Level 5: growth control rate is above 85%) |  | 5 (Level 5: growth control rate is above 85%) | 5 (Level 5: growth control rate is above 85%) | 5 (Level 5: growth control rate is above 85%) |
| CCC[S@@+]([O-])c1c(C(F)(F)F)ccc(C(=O)Nc2nnc(C)o2)c1CC [Compound 538] | 5 (Level 5: growth control rate is above 85%) |  | 5 (Level 5: growth control rate is above 85%) | 5 (Level 5: growth control rate is above 85%) | 5 (Level 5: growth control rate is above 85%) |
| CCC[S@@+]([O-])c1c(C(F)(F)F)ccc(C(=O)Nc2nnc(C)o2)c1C [Compound 537] | 5 (Level 5: growth control rate is above 85%) |  | 5 (Level 5: growth control rate is above 85%) | 5 (Level 5: growth control rate is above 85%) | 5 (Level 5: growth control rate is above 85%) |
| Cc1c(C(=O)Nc2nnnn2C)ccc(S(C)(=O)=O)c1[S@+]([O-])CC(C)F (stereo partly shown) [Compound 521] | 5 (Level 5: growth control rate is above 85%) |  | 5 (Level 5: growth control rate is above 85%) | 5 (Level 5: growth control rate is above 85%) | 5 (Level 5: growth control rate is above 85%) |
| Cc1c(C(=O)Nc2nnnn2C)ccc(S(C)(=O)=O)c1[S@+]([O-])CCCCl [Compound 526] | 5 (Level 5: growth control rate is above 85%) |  | 5 (Level 5: growth control rate is above 85%) | 5 (Level 5: growth control rate is above 85%) | 5 (Level 5: growth control rate is above 85%) |
| Cc1c(C(=O)Nc2nnnn2C)ccc(S(C)(=O)=O)c1[S@+]([O-])CC#N [Compound 527] | 5 (Level 5: growth control rate is above 85%) |  | 5 (Level 5: growth control rate is above 85%) | 5 (Level 5: growth control rate is above 85%) | 5 (Level 5: growth control rate is above 85%) |
| Cc1c(C(=O)Nc2nnnn2C)ccc(S(C)(=O)=O)c1[S@+]([O-])CC(F)F [Compound 522] | 5 (Level 5: growth control rate is above 85%) |  | 5 (Level 5: growth control rate is above 85%) | 5 (Level 5: growth control rate is above 85%) | 5 (Level 5: growth control rate is above 85%) |
| CCC[S@@+]([O-])c1c(C(F)(F)F)ccc(C(=O)Nc2nnc(C)o2)c1OCOC [Compound 536] | 5 (Level 5: growth control rate is above 85%) |  | 5 (Level 5: growth control rate is above 85%) | 5 (Level 5: growth control rate is above 85%) | 5 (Level 5: growth control rate is above 85%) |
| Cc1c(C(=O)Nc2nnnn2C)ccc(S(C)(=O)=O)c1[S@+]([O-])CC1CC1 [Compound 518] | 5 (Level 5: growth control rate is above 85%) |  | 5 (Level 5: growth control rate is above 85%) | 5 (Level 5: growth control rate is above 85%) | 5 (Level 5: growth control rate is above 85%) |
| CCC[S@@+]([O-])c1c(C(F)(F)F)ccc(C(=O)Nc2nnc(C)o2)c1SCOC [Compound 573] | 5 (Level 5: growth control rate is above 85%) |  | 5 (Level 5: growth control rate is above 85%) | 5 (Level 5: growth control rate is above 85%) | 5 (Level 5: growth control rate is above 85%) |
| CCC[S@@+]([O-])c1c(C(F)(F)F)ccc(C(=O)Nc2nnc(C)o2)c1I [Compound 545] | 5 (Level 5: growth control rate is above 85%) |  | 5 (Level 5: growth control rate is above 85%) | 5 (Level 5: growth control rate is above 85%) | 5 (Level 5: growth control rate is above 85%) |
| Cc1c(C(=O)Nc2nnnn2C)ccc(S(C)(=O)=O)c1[S@+]([O-])CCCF [Compound 523] | 5 (Level 5: growth control rate is above 85%) |  | 5 (Level 5: growth control rate is above 85%) | 5 (Level 5: growth control rate is above 85%) | 5 (Level 5: growth control rate is above 85%) |
